The CheMixHub viscosity set
“And” between values parts separate entries of the source, which are not always exact repeats. Identical values can stand only once.

CCN(CC)CCO
viscosity
Conditions | 298.15 K | 303.15 K | 313.15 K | 323.15 K
101.3 kPa | – | 3.308 mPa·s | 2.414 mPa·s | 1.466 mPa·s
101.33 kPa | 4.022 mPa·s and 4.01 mPa·s | 3.308 mPa·s | 2.414 mPa·s | –

CCCCCCCCCC
viscosity
Conditions | 293.15 K | 298.15 K | 303.15 K | 308.15 K | 313.15 K | 318.15 K | 323.15 K
100 kPa | 0.928 mPa·s and 0.918 mPa·s | 0.853 mPa·s and 0.874 mPa·s | 0.807 mPa·s and 0.795 mPa·s (2×) and 0.791 mPa·s | 0.745 mPa·s and 0.744 mPa·s | 0.691 mPa·s and 0.7 mPa·s (2×) and 0.699 mPa·s | 0.66 mPa·s and 0.659 mPa·s | 0.624 mPa·s
101 kPa | – | – | 0.802 mPa·s and 0.803 mPa·s | – | 0.6883 mPa·s | 0.66 mPa·s and 0.6182 mPa·s and 0.6466 mPa·s | 0.6085 mPa·s
101.32 kPa | 0.91 mPa·s | – | 0.785 mPa·s | – | – | – | –
101.33 kPa | 0.91 mPa·s | – | 0.774 mPa·s and 0.793 mPa·s and 0.755 mPa·s | – | 0.673 mPa·s | 0.619 mPa·s | –
103 kPa | – | 0.842 mPa·s | – | 0.727 mPa·s | – | 0.64 mPa·s | –

CC(C)CC(C)O (stereo unspecified)
Conditions | viscosity
298.15 K, 101.33 kPa | 3.823 mPa·s and 3.823 mPa·s

CCCCC(=O)OCC
101.33 kPa
Conditions | viscosity [mPa·s]
293.15 K | 0.846
303.15 K | 0.694
313.15 K | 0.629

CC(=O)O.NCCO
viscosity
Conditions | 293.15 K | 298.15 K | 303.15 K | 308.15 K | 313.15 K | 318.15 K | 323.15 K
101 kPa | 5032 mPa·s | 3167 mPa·s | 2044 mPa·s | 1369 mPa·s | 947.7 mPa·s | 661 mPa·s | 477.5 mPa·s
101.3 kPa | 3423 mPa·s | 2300 mPa·s and 2300 mPa·s and 2267 mPa·s | 1502 mPa·s | 1021 mPa·s | 711.1 mPa·s | 506.5 mPa·s | 368.3 mPa·s

CC(C)=CC(=O)C=C(C)C
Conditions | viscosity [mPa·s]
298.15 K, 101 kPa | 1.394

COP(=O)([O-])OC.C[N+]1(CCO)CCCC1
100 kPa
Conditions | viscosity [mPa·s]
293.15 K | 1452
298.15 K | 980.6
303.15 K | 687.4
308.15 K | 496.1
313.15 K | 366
318.15 K | 272.8
323.15 K | 210.2

CC1(C)OCC(CO)O1 (stereo unspecified)
101 kPa
Conditions | viscosity [mPa·s]
298.15 K | 9.643
308.15 K | 6.834
318.15 K | 5.076

CC/C=C\CCO
100 kPa
Conditions | viscosity [mPa·s]
293.15 K | 3.336
298.15 K | 2.921
303.15 K | 2.566
308.15 K | 2.266
313.15 K | 2.012
318.15 K | 1.807

CCCCCCCO
viscosity
Conditions | 100 kPa | 101 kPa | 101.3 kPa | 101.33 kPa
293.15 K | 7.018 mPa·s | – | 7.079 mPa·s | –
298 K | 5.956 mPa·s | – | – | –
298.15 K | – | – | 5.758 mPa·s | 5.69 mPa·s and 5.652 mPa·s
303 K | 4.778 mPa·s | – | – | –
303.15 K | 5.014 mPa·s | 4.996 mPa·s and 4.783 mPa·s | 4.814 mPa·s and 4.785 mPa·s | –
308.15 K | 4.275 mPa·s | 4.176 mPa·s and 4.691 mPa·s and 4.069 mPa·s | 4.2 mPa·s and 4.051 mPa·s and 4.691 mPa·s | 4.002 mPa·s and 4.045 mPa·s and 4.175 mPa·s
313 K | 3.228 mPa·s | 3.55 mPa·s | – | –
313.15 K | 3.656 mPa·s and 3.702 mPa·s and 3.735 mPa·s | 3.723 mPa·s and 4.598 mPa·s | 3.579 mPa·s | –
318.15 K | 3.407 mPa·s | – | 3.447 mPa·s | –
323 K | 2.529 mPa·s | – | – | –
323.15 K | 2.741 mPa·s and 2.8 mPa·s | – | – | 2.741 mPa·s and 2.741 mPa·s

CC(=O)CC(C)(C)O
Conditions | viscosity [mPa·s]
298.15 K, 101 kPa | 2.902

C[N+](C)(C)CCC[n+]1ccccc1.N#C[N-]C#N.N#C[N-]C#N
100 kPa
Conditions | viscosity
293.15 K | 2191 mPa·s and 2191 mPa·s
298.15 K | 1306 mPa·s
303.15 K | 830.8 mPa·s and 830.8 mPa·s
308.15 K | 557.7 mPa·s
313.15 K | 386 mPa·s and 386 mPa·s
318.15 K | 280.7 mPa·s
323.15 K | 210.2 mPa·s and 210.2 mPa·s

CS(C)=O
Conditions | viscosity
293.15 K, 100 kPa | 2.11 mPa·s and 2.23 mPa·s and 2.239 mPa·s
298 K, 101.3 kPa | 2.024 mPa·s
298.15 K, 101 kPa | 1.79 mPa·s
298.15 K, 101.3 kPa | 1.944 mPa·s and 1.926 mPa·s
298.15 K, 101.33 kPa | 1.848 mPa·s
299 K, 101 kPa | 3.143 mPa·s
302.4 K, 101 kPa | 3.676 mPa·s
303.15 K, 100 kPa | 1.79 mPa·s
303.15 K, 101.3 kPa | 1.788 mPa·s and 1.788 mPa·s (2×) and 1.788 mPa·s
308.15 K, 100 kPa | 1.63 mPa·s
308.15 K, 101.33 kPa | 1.498 mPa·s
313.15 K, 100 kPa | 1.5 mPa·s
313.15 K, 101.33 kPa | 1.449 mPa·s and 1.619 mPa·s
318.15 K, 101.3 kPa | 1.31 mPa·s and 1.31 mPa·s
318.15 K, 101.33 kPa | 1.317 mPa·s
323.15 K, 101.3 kPa | 1.284 mPa·s
323.15 K, 101.33 kPa | 1.221 mPa·s and 1.433 mPa·s

CCCCC
viscosity
Conditions | 100 kPa | 101 kPa | 101.33 kPa
293.15 K | 0.222 mPa·s | – | –
298.15 K | 0.212 mPa·s | 0.2121 mPa·s and 0.214 mPa·s | 0.223 mPa·s and 0.223 mPa·s and 0.237 mPa·s

C1CCCCCCC1
101 kPa
Conditions | viscosity
298.15 K | 2.25 mPa·s
303 K | 2.007 mPa·s
303.15 K | 2.031 mPa·s
308.15 K | 1.818 mPa·s (2×) and 1.818 mPa·s
313.15 K | 1.649 mPa·s and 1.692 mPa·s

CCN(CC)S(C)(=O)=O
Conditions | viscosity [mPa·s]
303.15 K, 101.33 kPa | 40590

OC1CCCCC1
viscosity
Conditions | 293.15 K | 298.15 K | 303.15 K | 308 K | 308.15 K | 313.15 K | 318.15 K | 318.16 K | 323.15 K
100 kPa | 83.29 mPa·s | 58.97 mPa·s | 43.42 mPa·s | – | 33.66 mPa·s and 32.39 mPa·s | 25.52 mPa·s and 25.85 mPa·s | 20.14 mPa·s | 19.5 mPa·s | –
101 kPa | – | – | 23.6 mPa·s and 39.55 mPa·s | 27.95 mPa·s | 27.95 mPa·s | – | – | – | 8.89 mPa·s

CCCCN(CCC#N)CCCC
Conditions | viscosity [mPa·s]
303.15 K, 100 kPa | 2.5

CCCCCCn1cc[n+](C)c1.O=S(=O)([N-]S(=O)(=O)C(F)(F)F)C(F)(F)F
viscosity
Conditions | 293.15 K | 298.15 K | 303.15 K | 308.15 K | 313.15 K | 318.15 K | 323.15 K
100 kPa | 89 mPa·s and 85.15 mPa·s | 65.94 mPa·s | 51.91 mPa·s | 41.36 mPa·s | 33.79 mPa·s | – | –
101 kPa | – | – | 58.3 mPa·s | 50.4 mPa·s | 41.4 mPa·s | 35 mPa·s | 28.8 mPa·s
